From patent US8586611B2 (priority 2005, dated 2013) come the findings set out here.

Holding throughout (type): in vivo
The test system of assay [1] is Plasmopara viticola. Briefly: Test B: grape downy mildew, spray 24 h after inoculation (disease rating, 100 = 100% disease control). The note with it: spray 24 h after inoculation, compounds without asterisk (not 40 or 10 ppm). A digest of the protocol:
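Grape seedlings were inoculated with Plasmopara viticola and held 24 h saturated at 20 °C, then sprayed to run-off with compound suspension (acetone/water with 250 ppm Trem 014; 200 ppm ≈ 500 g/ha). After 5 days at 20 °C and 24 h saturation, disease was rated from 0 to 100% control versus untreated.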

In assay [2] the test system is Erysiphe graminis f. sp. tritici. The assay is described as follows: Test E: wheat powdery mildew, spray the day before inoculation (disease rating, 100 = 100% disease control). The note with it: spray the day before inoculation, compounds without asterisk (not 40 or 10 ppm). The gist of the method: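 Wheat seedlings sprayed to run-off with compound suspended in acetone/water 50/50 with 250 ppm Trem 014 (200 ppm equivalent to 500 g/ha); inoculated next day with Erysiphe graminis f. sp. tritici spore dust. Kept 7 days at 20° C, then rated 0–100% disease control versus controls.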

The test system of assay [3] is Phytophthora infestans. Briefly: whole plant or invertebrate. The note with it: tomato late blight; spray 17 h after inoculation; compounds without asterisk (not 40 or 10 ppm).
The subject of assay [4] is Pseudoperonospora cubensis. Briefly: Test F: cucumber downy mildew, DMSO/acetone/water test suspension, spray the day before inoculation (disease rating, 100 = 100% disease control). The note with it: DMSO/acetone/water suspension, spray the day before inoculation, compounds without asterisk. The text has this:
The test compounds were first dissolved in dimethyl sulfoxide (DMSO) in an amount equal to 4% of the final volume and then suspended at the desired concentration (in ppm) in acetone and purified water (30/70 mix by volume). The resulting test suspensions were then used in test F. Spraying a 250 ppm test suspension on the test plants was the equivalent of a rate of 250 g/ha.
The test suspension was sprayed on cucumber seedlings. The following day the seedlings were inoculated with a spore suspension of Pseudoperonospora cubensis (the causal agent of cucumber downy mildew) and incubated in a saturated atmosphere at 20° C. for 24 h, and then moved to a growth chamber at 20° C. for 6 days, after which disease ratings were made.
Results for Tests A-F are given in Table A. In the table, a rating of 100 indicates 100% disease control and a rating of 0 indicates no disease control (relative to the controls). A dash (-) indicates no test results.

The subject of assay [5] is Phytophthora infestans. The assay is described as follows: whole plant or invertebrate. The note with it: tomato late blight; spray the day before inoculation; compounds without asterisk (not 40 or 10 ppm).

Take `C[C@H](c1ccccc1)N(C)C(=O)c1csc(C2CCN(C(=O)Cc3cc(Cl)ccc3Cl)CC2)n1` [compound 77]: the “Test B disease rating (100 = 100% disease control, 0 = no disease control)” value in assay [1] amounted to 100%. Moreover, the “Test E disease rating (100 = 100% disease control, 0 = no disease control)” value in assay [2] was determined as 88%. For the same compound, the “Test D disease rating (100 = 100% disease control, 0 = no disease control)” value in assay [3] is given as 100%. Also, the “Test F disease rating (100 = 100% disease control, 0 = no disease control)” value in assay [4] was found to be 50%. For the same compound, the “Test C disease rating (100 = 100% disease control, 0 = no disease control)” value in assay [5] amounted to 100%.

With `C[C@H](c1ccccc1)N(C)C(=O)c1coc(N2CCN(C(=O)Cc3cc(C(F)(F)F)ccc3Cl)CC2)n1` [compound 51], the “Test B disease rating (100 = 100% disease control, 0 = no disease control)” value in assay [1] came to 20%. Moreover, the “Test E disease rating (100 = 100% disease control, 0 = no disease control)” value in assay [2] worked out at 0%. Besides, the “Test D disease rating (100 = 100% disease control, 0 = no disease control)” value in assay [3] worked out at 96%. For the same compound, the “Test F disease rating (100 = 100% disease control, 0 = no disease control)” value in assay [4] worked out at 100%. In addition, the “Test C disease rating (100 = 100% disease control, 0 = no disease control)” value in assay [5] worked out at 100%.

On to `Cc1ccc(C(F)(F)F)cc1CC(=O)N1CCC(c2nc(C(=O)N(C)[C@H](C)c3ccccc3)cs2)CC1` [compound 124], for which the “Test B disease rating (100 = 100% disease control, 0 = no disease control)” value in assay [1] is reported as 100%. The “Test E disease rating (100 = 100% disease control, 0 = no disease control)” value in assay [2] was 71%. Moreover, the “Test D disease rating (100 = 100% disease control, 0 = no disease control)” value in assay [3] stood at 0%. Further, the “Test F disease rating (100 = 100% disease control, 0 = no disease control)” value in assay [4] was found to be 90%. In assay [5], the “Test C disease rating (100 = 100% disease control, 0 = no disease control)” value turned out to be 100%.

Consider `Cc1ccc(C)c(CC(=O)N2CCC(c3nc(C(=O)N(C)C4CSCc5ccccc54)cs3)CC2)c1` (stereo not drawn) [compound 172], for which, in assay [1], the “Test B disease rating (100 = 100% disease control, 0 = no disease control)” value was 43%. In addition, the “Test E disease rating (100 = 100% disease control, 0 = no disease control)” value in assay [2] was 0%. The “Test D disease rating (100 = 100% disease control, 0 = no disease control)” value in assay [3] turned out to be 100%. For the same compound, in assay [4], the “Test F disease rating (100 = 100% disease control, 0 = no disease control)” value was 99%. For the same compound, the “Test C disease rating (100 = 100% disease control, 0 = no disease control)” value in assay [5] is on record as 100%.

With `Cc1ccc(C)c(CC(=O)N2CCC(c3nc(C(=O)N(C)C4CCCC(C)C4C)cs3)CC2)c1` (stereo not drawn) [compound 177], in assay [1], the “Test B disease rating (100 = 100% disease control, 0 = no disease control)” value was found to be 86%. Further, the “Test E disease rating (100 = 100% disease control, 0 = no disease control)” value in assay [2] is given as 0%. For the same compound, the “Test D disease rating (100 = 100% disease control, 0 = no disease control)” value in assay [3] came out at 79%. Further, the “Test F disease rating (100 = 100% disease control, 0 = no disease control)” value in assay [4] is listed as 43%. Further, the “Test C disease rating (100 = 100% disease control, 0 = no disease control)” value in assay [5] turned out to be 100%.

As to `Cc1ccc(C)c(CC(=O)N2CCC(c3nc(C(=O)N(C)C4CCCc5c4ccc4ccccc54)cs3)CC2)c1` (stereo not drawn) [compound 173], in assay [1], the “Test B disease rating (100 = 100% disease control, 0 = no disease control)” value was determined as 0%. The “Test E disease rating (100 = 100% disease control, 0 = no disease control)” value in assay [2] is 0%. For the same compound, the “Test D disease rating (100 = 100% disease control, 0 = no disease control)” value in assay [3] was found to be 0%. Besides, in assay [4], the “Test F disease rating (100 = 100% disease control, 0 = no disease control)” value is 95%. For the same compound, the “Test C disease rating (100 = 100% disease control, 0 = no disease control)” value in assay [5] is reported as 0%.

With `Cc1ccc(C)c(CC(=O)N2CCC(c3nc(C(=O)N(C)[C@H](C)c4ccccc4F)cs3)CC2)c1` [compound 57], the “Test B disease rating (100 = 100% disease control, 0 = no disease control)” value in assay [1] is listed as 100%. Also, the “Test E disease rating (100 = 100% disease control, 0 = no disease control)” value in assay [2] is listed as 50%. The “Test D disease rating (100 = 100% disease control, 0 = no disease control)” value in assay [3] was 94%. Besides, in assay [4], the “Test F disease rating (100 = 100% disease control, 0 = no disease control)” value was 99%. For the same compound, the “Test C disease rating (100 = 100% disease control, 0 = no disease control)” value in assay [5] is recorded as 100%.

In the case of `Cc1ccc(C)c(CC(=O)N2CCC(c3nc(C(=O)N(C)C(C)c4cccnc4)cs3)CC2)c1` (stereo not drawn) [compound 95], in assay [1], the “Test B disease rating (100 = 100% disease control, 0 = no disease control)” value was 0%. Further, the “Test E disease rating (100 = 100% disease control, 0 = no disease control)” value in assay [2] worked out at 0%. Further, the “Test D disease rating (100 = 100% disease control, 0 = no disease control)” value in assay [3] is listed as 83%. The “Test F disease rating (100 = 100% disease control, 0 = no disease control)” value in assay [4] is 97%. The “Test C disease rating (100 = 100% disease control, 0 = no disease control)” value in assay [5] was 100%.

In the case of `COc1cccc([C@@H](C)N(C)C(=O)c2csc(C3CCN(C(=O)Cc4cc(C)ccc4C)CC3)n2)c1` [compound 69], in assay [1], the “Test B disease rating (100 = 100% disease control, 0 = no disease control)” value turned out to be 88%. Further, in assay [2], the “Test E disease rating (100 = 100% disease control, 0 = no disease control)” value amounted to 29%. In addition, the “Test D disease rating (100 = 100% disease control, 0 = no disease control)” value in assay [3] turned out to be 0%. Also, the “Test F disease rating (100 = 100% disease control, 0 = no disease control)” value in assay [4] was determined as 100%. Moreover, the “Test C disease rating (100 = 100% disease control, 0 = no disease control)” value in assay [5] is recorded as 100%.
